In PMC3351444, “Molecular Evolution of a Peptide GPCR Ligand Driven by Artificial Neural Networks” (PLoS ONE, 2012):
Where two headings read alike, the source gives them in different places. Square brackets hold non-standard residues; d marks the D form. Ends that are not written are not given here. Peptide text beside a SMILES is read from it.

How the values were obtained:
human CMKLR1 = target: T1, human CMKLR1 (Homo sapiens, UniProt Q99788); experiment: Ca2+ mobilization (CellLux imaging) agonist assay in HEK293A cells expressing CMKLR1 and Gα15; format: cell-based
T1 construct: host or cells: HEK293A (Invitrogen), stably expressing human Gα15
T1 sequence (Q99788 1-373): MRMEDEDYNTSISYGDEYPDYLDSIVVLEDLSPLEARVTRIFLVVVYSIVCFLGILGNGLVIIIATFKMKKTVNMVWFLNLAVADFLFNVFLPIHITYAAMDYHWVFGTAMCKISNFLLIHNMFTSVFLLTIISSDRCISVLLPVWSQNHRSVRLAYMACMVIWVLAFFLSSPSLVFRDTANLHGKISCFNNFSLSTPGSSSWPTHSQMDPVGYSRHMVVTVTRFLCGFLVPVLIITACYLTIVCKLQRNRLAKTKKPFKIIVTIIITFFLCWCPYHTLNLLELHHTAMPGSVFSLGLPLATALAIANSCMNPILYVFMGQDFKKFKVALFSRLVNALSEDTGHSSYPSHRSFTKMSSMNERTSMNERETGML
In short: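 HEK293A cells co-expressing CMKLR1 and Gα15 were loaded with FLUO4-AM, and peptides were added robotically in C1 buffer (HEPES pH 7.4, 2 mM CaCl2) with 0.1% BSA. Fluorescence changes were read in duplicate wells, buffer-subtracted and normalized to background. EC50 came from amplitude–concentration plots.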

[1] = In vitro peptide stability in human serum (RP-HPLC); conditions: for half-life at 50 µg/mL: human, human serum, 25% (v/v) in RPMI; for t1/2: metabolic stability in human serum
Description: The initial time is recorded, and at known time intervals 50 µL of the reaction solution is removed and added to 100 µL of 6% aqueous trichloroacetic acid (TCA) for precipitation of serum proteins. […] The reaction supernatant is then analyzed using RP-HPLC (Agilent 1200 LC System) on a ZORBAX Eclipse XDB-C18, 4.6×150 mm, 5 µm column (Agilent). […] Fluorescence is detected at an excitation wavelength of 280 nm and emission wavelength of 340 nm. Kinetic analysis was carried out by least-squares analysis of the logarithm of the integration peak area versus time.

[2] = Ca2+ mobilization, CMKLR1, decimal comma
[3] = Ca2+ mobilization, CMKLR1, decimal comma, NR where no EC50 is given, read-out: EC50
[4] = intracellular calcium mobilization, HEK293 cells expressing CMKLR1, mean of three independent experiments ± SD, read-out: activity: EC50 ±SD

| max response (human CMKLR1; [2]) | EC50 (human CMKLR1; [3]) | half-life at 50 µg/mL [1] | t1/2 [1] | EC50 (human CMKLR1; [4]) | Molecule |
| --- | --- | --- | --- | --- | --- |
| 1,77 DF/F0 | 0.21 nM | 36 min |  |  | CC(C)C[C@H](NC(=O)[C@@H](N)Cc1ccc(O)cc1)C(=O)N1CCC[C@H]1C(=O)NCC(=O)N[C@@H](CCC(N)=O)C(=O)N[C@@H](Cc1ccc(O)cc1)C(=O)N[C@@H](C)C(=O)N[C@@H](Cc1ccccc1)C(=O)N[C@H](Cc1ccccc1)C(=O)O [compound 80] (H-YLPGQYAF[dF]-OH; N-terminus assumed) |
| 0,64 DF/F0 | 2610 nM | 218 min |  |  | CC(C)C[C@H](NC(=O)[C@H](Cc1ccccc1)NC(=O)CNC(=O)[C@@H]1CCCN1C(=O)[C@H](CC(C)C)NC(=O)[C@@H](N)Cc1ccccc1)C(=O)N[C@@H](C)C(=O)N[C@@H](CC(C)C)C(=O)N1CCC[C@@H]1C(=O)O [compound 72] (H-FLPGFLAL[dP]-OH; N-terminus assumed) |
| 0,68 DF/F0 |  |  | 28 min |  | FLPGQYAFS-OH [compound 34] |
| 1,58 DF/F0 | 53.6 nM | 151 min |  |  | CC(C)[C@H](NC(=O)[C@H](N)Cc1ccc(O)cc1)C(=O)N1CCC[C@H]1C(=O)NCC(=O)N[C@@H](CCC(N)=O)C(=O)N[C@@H](Cc1ccc(O)cc1)C(=O)N[C@@H](C)C(=O)N[C@@H](Cc1ccccc1)C(=O)N[C@@H](CO)C(=O)O [compound 91] (H-[dY]VPGQYAFS-OH; N-terminus assumed) |
| 1,75 DF/F0 |  |  | 110 min |  | CC(C)C[C@H](NC(=O)[C@@H](N)Cc1ccc(O)cc1)C(=O)N1CCC[C@H]1C(=O)N[C@H](C)C(=O)N[C@@H](CCC(N)=O)C(=O)N[C@@H](Cc1ccc(O)cc1)C(=O)N[C@@H](C)C(=O)N[C@@H](Cc1ccccc1)C(=O)N[C@H](CO)C(=O)O [compound 124] (H-YLP[dA]QYAF[dS]-OH; N-terminus assumed) |
| 0,97 DF/F0 | 28.7 nM | 17 min |  |  | YLPGQGAFP-OH [compound 49] |
| 1,97 DF/F0 | 104 nM | 637 min |  |  | CC(C)C[C@H](N)C(=O)N[C@H](Cc1ccccc1)C(=O)NCC(=O)N1CCC[C@@H]1C(=O)N[C@@H](Cc1ccc(O)cc1)C(=O)NCC(=O)N[C@H](Cc1c[nH]c2ccccc12)C(=O)N[C@H](CO)C(=O)N[C@@H](C)C(=O)O [compound 138] (H-L[dF]G[dP]YG[dW][dS]A-OH; N-terminus assumed) |
| 0,43 DF/F0 | 1920 nM | 27 min |  |  | PLPGQFQFK-OH [compound 70] |
| 1,52 DF/F0 | 35.6 nM | 124 min |  |  | CC(C)C[C@H](NC(=O)[C@@H](N)Cc1ccc(O)cc1)C(=O)N1CCC[C@H]1C(=O)N[C@H](Cc1c[nH]c2ccccc12)C(=O)N[C@@H](CCC(N)=O)C(=O)N[C@@H](Cc1ccc(O)cc1)C(=O)N[C@@H](C)C(=O)N[C@@H](Cc1ccccc1)C(=O)N[C@H](Cc1ccccc1)C(=O)O [compound 127] (H-YLP[dW]QYAF[dF]-OH; N-terminus assumed) |
| 0,94 DF/F0 | 7.23 nM | 45 min |  |  | CC(C)C[C@H](NC(=O)[C@@H](N)Cc1ccc(O)cc1)C(=O)N1CCC[C@H]1C(=O)NCC(=O)N[C@@H](CCC(N)=O)C(=O)N[C@@H](Cc1ccccc1)C(=O)N[C@H](Cc1c[nH]c2ccccc12)C(=O)N[C@@H](Cc1ccccc1)C(=O)N[C@@H](CO)C(=O)O [compound 41] (H-YLPGQF[dW]FS-OH; N-terminus assumed) |
| 1,56 DF/F0 | 140 nM | 81 min |  |  | CC(C)C[C@H](NC(=O)[C@H](N)Cc1ccc(O)cc1)C(=O)N1CCC[C@H]1C(=O)NCC(=O)N[C@@H](CCC(N)=O)C(=O)N[C@@H](Cc1ccc(O)cc1)C(=O)N[C@@H](C)C(=O)N[C@@H](Cc1ccc(O)cc1)C(=O)N[C@@H](CO)C(=O)O [compound 101] (H-[dY]LPGQYAYS-OH; N-terminus assumed) |
| 1,1 DF/F0 | 41.7 nM | 32 min |  |  | CC(C)C[C@@H](NC(=O)[C@H](CCCNC(=N)N)NC(=O)[C@@H](N)Cc1ccc(O)cc1)C(=O)NCC(=O)N[C@@H](CCC(N)=O)C(=O)N[C@@H](Cc1ccc(O)cc1)C(=O)N[C@H](Cc1c[nH]c2ccccc12)C(=O)N[C@H](CC(=O)O)C(=O)N[C@H](Cc1ccccc1)C(=O)O [compound 129] (H-YR[dL]GQY[dW][dD][dF]-OH; N-terminus assumed) |
|  |  | 21 ± 4 min |  | 8.62 ± 5.01 nM | C[C@H](NC(=O)[C@H](Cc1ccc(O)cc1)NC(=O)[C@H](CCC(N)=O)NC(=O)CNC(=O)[C@@H]1CCCN1C(=O)[C@H](CCCNC(=N)N)NC(=O)[C@@H](N)Cc1ccc(O)cc1)C(=O)N[C@@H](Cc1ccccc1)C(=O)N[C@H](CO)C(=O)O (H-YRPGQYAF[dS]-OH; N-terminus assumed) |
| 1,62 DF/F0 | 67.4 nM | 20 min |  |  | NC(=O)CC[C@H](NC(=O)CNC(=O)[C@@H]1CCCN1C(=O)[C@H](Cc1ccccc1)NC(=O)[C@H](N)Cc1ccc(O)cc1)C(=O)N[C@@H](Cc1ccc(O)cc1)C(=O)N[C@H](Cc1c[nH]c2ccccc12)C(=O)N[C@@H](Cc1ccccc1)C(=O)N[C@H](Cc1ccccc1)C(=O)O [compound 133] (H-[dY]FPGQY[dW]F[dF]-OH; N-terminus assumed) |
| 0,6 DF/F0 |  | 84 min |  |  | PLPGQQAFF-OH [compound 79] |
| 1,15 DF/F0 | 233000 nM | 24 min |  |  | CC(C)C[C@H](NC(=O)[C@@H](N)Cc1ccc(O)cc1)C(=O)N1CCC[C@H]1C(=O)NCC(=O)N[C@@H](CCC(N)=O)C(=O)N[C@@H](C)C(=O)N[C@H](Cc1ccccc1)C(=O)N[C@@H](Cc1ccccc1)C(=O)N[C@@H](CCCCN)C(=O)O [compound 78] (H-YLPGQA[dF]FK-OH; N-terminus assumed) |
| 1,82 DF/F0 |  |  | 1157 min |  | CC(C)C[C@H](NC(=O)[C@H](N)Cc1ccccc1)C(=O)N1CCC[C@H]1C(=O)NCC(=O)N[C@@H](CCC(N)=O)C(=O)N[C@@H](Cc1ccc(O)cc1)C(=O)N[C@@H](C)C(=O)N[C@@H](Cc1ccccc1)C(=O)N[C@H](Cc1ccccc1)C(=O)O [compound 83] (H-[dF]LPGQYAF[dF]-OH; N-terminus assumed) |
| 1,76 DF/F0 | 49.2 nM | 73 min |  |  | CC(C)C[C@H](NC(=O)[C@@H](N)Cc1ccccc1)C(=O)N1CCC[C@H]1C(=O)NCC(=O)N[C@@H](CCC(N)=O)C(=O)N[C@@H](Cc1ccccc1)C(=O)N[C@H](Cc1c[nH]c2ccccc12)C(=O)N[C@@H](Cc1ccccc1)C(=O)N[C@H](CO)C(=O)O [compound 89] (H-FLPGQF[dW]F[dS]-OH; N-terminus assumed) |
|  |  | 159 ± 56 min |  | 3.24 ± 1.02 nM | CC(C)C[C@H](NC(=O)[C@@H](N)Cc1ccc(O)cc1)C(=O)N1CCC[C@H]1C(=O)NCC(=O)N[C@@H](CCC(N)=O)C(=O)N[C@@H](Cc1ccc(O)cc1)C(=O)N[C@H](Cc1c[nH]c2ccccc12)C(=O)N[C@@H](Cc1ccccc1)C(=O)N[C@H](Cc1ccccc1)C(=O)O [YLPGQYwFf] (H-YLPGQY[dW]F[dF]-OH; N-terminus assumed) |
| 1,97 DF/F0 | 1060 nM | 362 min |  |  | CC(C)[C@H](NC(=O)[C@@H](Cc1ccc(O)cc1)NC(=O)[C@H](CO)NC(=O)[C@@H]1CCCN1)C(=O)N1CCC[C@H]1C(=O)NCC(=O)N[C@@H](CCC(N)=O)C(=O)N[C@@H](Cc1ccc(O)cc1)C(=O)N[C@@H](C)C(=O)O [compound 107] (H-PS[dY]VPGQYA-OH; N-terminus assumed) |
| 0,93 DF/F0 | 567 nM | 26 min |  |  | FLPGQYAFK-OH [compound 64] |
| 1,62 DF/F0 | 27.5 nM | 49 min |  |  | CC(C)C[C@H](NC(=O)[C@@H](N)Cc1ccc(O)cc1)C(=O)N1CCC[C@H]1C(=O)NCC(=O)N[C@@H](CCC(N)=O)C(=O)N[C@@H](Cc1ccc(O)cc1)C(=O)N[C@@H](C)C(=O)N[C@@H](Cc1ccc(O)cc1)C(=O)N[C@H](CO)C(=O)O [compound 87] (H-YLPGQYAY[dS]-OH; N-terminus assumed) |
| 1,78 DF/F0 | 143 nM | 83 min |  |  | C[C@H](NC(=O)[C@H](Cc1ccccc1)NC(=O)[C@H](C)NC(=O)[C@H](Cc1ccc(O)cc1)NC(=O)[C@H](C)NC(=O)[C@H](Cc1ccccc1)NC(=O)[C@@H](CO)NC(=O)[C@H](Cc1ccccc1)NC(=O)[C@@H](N)CCC(N)=O)C(=O)O [compound 102] (H-QF[dS]FAYAFA-OH; N-terminus assumed) |
| 1,73 DF/F0 | 246 nM | 80 min |  |  | CC(C)C[C@H](NC(=O)[C@H](N)Cc1ccc(O)cc1)C(=O)N1CCC[C@@H]1C(=O)NCC(=O)N[C@@H](CCC(N)=O)C(=O)N[C@@H](Cc1ccc(O)cc1)C(=O)N[C@@H](C)C(=O)N[C@@H](Cc1ccccc1)C(=O)N[C@@H](CO)C(=O)O [compound 104] (H-[dY]L[dP]GQYAFS-OH; N-terminus assumed) |
| 0,92 DF/F0 | 15.6 nM | 16 min |  |  | YLPGQYAFY-OH [compound 48] |
| 0,99 DF/F0 | 1870 nM | 22 min |  |  | YLPGQGAFK-OH [compound 69] |
